Measured values as given in US6780872B2, “Tricyclic dihydropyrazolone and tricyclic dihydroisoxazolone potassium channel openers” (Abbott Laboratories, priority 2000, dated 2004).

Tested on: guinea-pig urinary bladder (GPB) cells
Assay: Membrane hyperpolarization (MHP) assay, DiBAC(4)3 dye, FLIPR
Assay type: cell-based
Conditions: Cavia porcellus; for Emax: maximal steady-state hyperpolarization in GPB cells, normalized to response with 10 μM P1075 (=100%); for EC50: membrane hyperpolarization in GPB cells, concentration eliciting 50% of the maximal response of the test sample
Description: Compounds were evaluated for potassium channel opening activity using primary cultured guinea-pig urinary bladder (GPB) cells.
For the preparation of urinary bladder smooth muscle cells, urinary bladders were removed from male guinea-pigs (Hartley, Charles River, Wilmington, Mass.) weighing 300-400 g and placed in ice-cold Ca^2+-free Krebs solution (Composition, mM: KCl, 2.7; KH2PO4, 1.5; NaCl, 75; Na2HPO4, 9.6; Na2HPO4.7H2O, 8; MgSO4, 2; glucose, 5; HEPES, 10; pH 7.4). Cells were isolated by enzymatic dissociation as previously described with minor modifications in (Klockner, U. and Isenberg, G., Pflugers Arch. 1985, 405, 329-339), hereby incorporated by reference. The bladder was cut into small sections and incubated in 5 mL of the Kreb's solution containing 1 mg/mL collagenase (Sigma, St. Louis, Mo.) and 0.2 mg/mL pronase (Calbiochem, La Jolla, Calif.) with continuous stirring in a cell incubator for 30 minutes. The mixture was then centrifuged at 1300×g for 5 minutes, and the pellet resuspended in Dulbecco's PBS (GIBCO, Gaithersburg, Md.) and recentrifuged to remove residual enzyme. The cell pellet was resuspended in 5 mL growth media (composition: Dulbecco's modified Eagle's medium supplemented with 10% fetal bovine serum, 100 units/mL penicillin, 100 units/mL streptomycin and […] amphotericin B) and further dissociated by pipetting the suspension through a flame-polished Pasteur pipette and passing it through a polypropylene mesh membrane (Spectrum, Houston, Tex.). The cell density was adjusted to 100,000 cells/mL by resuspension in growth media. Cells were plated in clear-bottomed black 96-well plates (Packard) for membrane potential studies at a density of 20,000 cells/well and maintained in a cell incubator with 90% air: 10% CO2 until confluent. Cells were confirmed to be of smooth muscle type by cytoskeletal staining using a monoclonal mouse anti human-α-smooth muscle actin (Biomeda, Foster City, Calif.).
Functional activity at potassium channels was measured by evaluating changes in membrane potential using the bis-oxonol dye DiBAC(4)3 (Molecular Probes) in a 96-well cell-based kinetic assay system, Fluorescent Imaging Plate Reader (FLIPR) (K. S. Schroeder et al., J. Biomed. Screen., v. 1 pp. 7581 (1996)), hereby incorporated by reference. DiBAC(4) is an anionic potentiometric probe which partitions between cells and extracellular solution in a membrane potential-dependent manner. With increasing membrane potential (for example, K^+ depolarization), the probe further partitions into the cell; this is measured as an increase in fluorescence due to dye interaction with intracellular lipids and proteins. Conversely, decreasing membrane potential (hyperpolarization by potassium channel openers) evokes a decrease in fluorescence.
Confluent guinea-pig urinary bladder cells cultured in black clear-bottomed 96-well plates were rinsed twice with […] assay buffer (composition, mM: HEPES, 20; NaCl, 120; KCl, 2; CaCl2, 2; MgCl2, 1; glucose, 5; pH 7.4 at 25° C.) containing 5 μM DiBAC(4) and incubated with […] of the buffer in a cell incubator for 30 minutes at 37° C. to ensure dye distribution across the membrane. After recording the baseline fluorescence for 5 minutes, the reference or test compounds, prepared at 10 times the concentration in the assay buffer, were added directly to the wells. Changes in fluorescence were monitored for an additional 25 minutes. Hyperpolarization responses were corrected for any background noise and were normalized to the response observed with 10 μM of the reference compound P1075, N″-cyano-N-(tert-pentyl)-N′-(3-pyridinyl)guanidine, which was assigned as 100%. P1075 is a potent opener of smooth muscle KATP channels (Quast et al., Mol. Pharmacol., v. 43 pp. 474-481 (1993)) and was prepared using the procedures described in (Manley, J. Med. Chem. (1992) 35, 2327-2340), hereby incorporated by reference. […]

Compound | Emax | EC50
Cn1[nH]c(=O)c2c1NC1=C(C(=O)C(C)(C)CC1)C2c1ccc(Cl)c(Cl)c1 (stereo not drawn) [Example 24, 4-(3,4-dichlorophenyl)-1,6,6-trimethyl-4,7,8,9-tetrahydro-1H-pyrazolo[3,4-b]quinoline-3,5(2H,6H)-dione] | 82% | 180 nM
Cn1[nH]c(=O)c2c1NC1=C(C(=O)OCC1)C2c1ccc(F)c(Br)c1 (stereo not drawn) [Example 31, 4-(3-bromo-4-fluorophenyl)-1-methyl-1,2,4,7,8,9-hexahydropyrano[4,3-b]pyrazolo[4,3-e]pyridine-3,5-dione] | 96% | 760 nM
Cn1[nH]c(=O)c2c1NC1=C(C(=O)CC1)C2c1ccc(Cl)c(Cl)c1 (stereo not drawn) [Example 13, 4-(3,4-dichlorophenyl)-1-methyl-1,2,4,6,7,8-hexahydrocyclopenta[b]pyrazolo[4,3-e]pyridine-3,5-dione] | 101% | 670 nM
